Test [1] has as its system Bone Morphogenetic Protein 7 (BMP-7) expression in wild type 293S cells. Nature of the test: Kidney regeneration assay: BMP-7 expression by Northern blot in wild type 293S cells. It counts as cell-based, human. To be noted: parental 293S cell line, 10^-6M, RNA at 8, 16 and 24 hours. The procedure: (§1) 293S and EP2 293S cells are grown in Dulbecco's Modified Egale medium (DMEM, Gibco, BRL; Gaithersburg, Md.). […] Cells are harvested and RNA is extracted at 8, 16 and 24 hours. Northern blot analysis of total ([…]) is carried out by probing the blots with ^32P-labeled BMP-7 probe. The blots are normalized for RNA loading by hybridization with ^32P-labeled 18s ribosomal RNA probe. […] Given the known role of BMP-7 in kidney regeneration and the ability of an prostaglandin agonist to induce BMP-7 expression in 293S kidney cells in a time and receptor specific manner indicates a role for prostaglandin agonist in kidney regeneration.

Test [2] relates to Bone Morphogenetic Protein 7 (BMP-7) expression in 293S cells transfected with EP2. Nature of the test: Kidney regeneration assay: BMP-7 expression by Northern blot in EP2 293S cells. In kind it is cell-based, human. The following applies: 10^-6M, RNA at 8, 16 and 24 hours, time dependent. How it is done: as §1

In the case of `CCCCC[C@H](O)/C=C/[C@H]1[C@H](O)CC(=O)[C@@H]1C/C=C\CCCC(=O)O` [PGE2, Prostaglandin E2], the “induction of BMP-7 expression” value in test [1] was “generally not observed”; in test [2], “induce the expression of BMP-7”.
